In patent US20090054353A1, “MANNOSYL-1 PHOSPHATES, PREPARATION METHOD AND THERAPEUTIC USE, IN PARTICULAR AGAINST THE CDG-IA SYNDROME” (priority 2006, published 2009):

How the values were obtained:
[1] = tested on: lymphoblasts of CDG-Ia diseases; assay: inhibition of incorporation of 2-[3H]mannose into cellular glycoconjugates ("radioactivity"); type: cell-based, human; conditions: dose of 500 μM; for effectiveness in inhibiting the incorporation of radioactive mannose into glycoproteins (in words): lymphoblasts, comparison between products; for Radioactivity (inhibition, by competition, of the binding of 2-[3H]mannose-1 phosphate): percentage relative to the controls, lymphoblasts of CDG-Ia, 5 trials per product
Protocol: (§1) The compounds of formula I, II and III were tested as prodrugs (i.e. as intracellular sources of Man-1 P), on the one hand, in order to evaluate their toxicity and, on the other hand, in order to assess their capacity to inhibit the incorporation of 2-[^3H]mannose into cellular glycoconjugates. Indeed, while they can generate Man-1 P in cells, it will be in competition with 2-[^3H]mannose-1 phosphate for entering the pathway for biosynthesis of glycoproteins (see Eklund, E. A., et al. cited above).
(§2) The products were tested (5 trials per product and per dose) on lymphoblasts of CDG-Ia diseases and their activities (“radioactivity”, i.e. inhibition, by competition, of the binding of 2-[^3H]mannose-1 phosphate; and cell “toxicity”) were assessed as a percentage relative to the controls (10 trials).

[2] = tested on: lymphoblasts of CDG-Ia diseases; assay: cell toxicity on lymphoblasts; type: cell-based; conditions: dose of 500 μM; for cell mortality / toxicity (in words): lymphoblasts, comparison with CP1, CP3 and CP6; for Toxicity (cell toxicity): percentage relative to the controls, lymphoblasts of CDG-Ia, 5 trials per product
Protocol: as §1, §2

Row | Molecule | effectiveness in inhibiting the incorporation of radioactive mannose into glycoproteins (in words) [1] | Radioactivity (inhibition, by competition, of the binding of 2-[3H]mannose-1 phosphate) [1] | cell mortality / toxicity (in words) [2] | Toxicity (cell toxicity) [2]
1 | Benzyl di(2,3,4,6-tetra-O-isobutyryl-α-D-mannopyranosyl-1) phosphate [Ex. 12] | less effective than CP1, CP3 and CP6 | 25% | a lot less toxic | 112%
2 | CC(=O)OC[C@H]1O[C@H](OP(=O)(OCOC(=O)C(C)(C)C)OCOC(=O)C(C)(C)C)[C@@H](OC(C)=O)[C@@H](OC(C)=O)[C@@H]1OC(C)=O [CP1, di(pivaloyloxymethyl) (2,3,4,6-tetra-O-acetyl)-α-D-mannopyranosyl-1] phosphate] |  | 92% | at least a doubling of cell mortality | 210%
3 | CC(C)(C)C(=O)OCOP(=O)(OCOC(=O)C(C)(C)C)O[C@H]1O[C@H](COC(=O)C(C)(C)C)[C@@H](OC(=O)C(C)(C)C)[C@H](OC(=O)C(C)(C)C)[C@@H]1OC(=O)C(C)(C)C [CP3, di(pivaloyloxymethyl) (2,3,4,6-tetra-O-pivaloyl-α-D-manno-pyranosyl-1) phosphate] |  | 90% | at least a doubling of cell mortality | 205%
4 | CCOC(=O)OC[C@H]1O[C@H](OP(=O)(OCOC(C)=O)OCOC(C)=O)[C@@H](OC(=O)OCC)[C@@H](OC(=O)OCC)[C@@H]1OC(=O)OCC [CP6, di(acetyloxymethyl) (2,3,4,6-tetra-O-ethyloxycarbonyl)-α-D-manno-pyranosyl-1) phosphate] |  | 91% | at least a doubling of cell mortality | 201%
5 | Di(2,3,4,6-tetra-O-isobutyryl-α-D-mannopyranosyl-1) hydrogen phosphate [Ex. 4] | therapeutically less effective than Ex. 5, Ex. 11, Ex. 12 and Ex. 13 | 100% | less toxic | 100%
